In ChEMBL document CHEMBL1201862, “PubChem BioAssay data set” (2004):
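1) Cells in 96-well plates. 2) Compound, 48 h, 5 concentrations. 3) Linear interpolation between surrounding doses. 4) Unreached endpoint = highest concentration. At the GI50, growth is halved.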 Calls of active or inactive are those of the source. No stated cut-off is given here; in the data, active = GI50 up to about 1.1 µM and inactive = higher.

Columns and labels:
Experiment in all cases: NCI-60 cell line screen, 48 h
NCI/ADR-RES = test system: NCI/ADR-RES
HCT-15 = test system: HCT-15
K562 = test system: K562
EKVX = test system: EKVX
HCC 2998 = test system: HCC 2998
PC-3 = test system: PC-3
UO-31 = test system: UO-31
BT-549 = test system: BT-549
HOP-62 = test system: HOP-62
NCI-H226 = test system: NCI-H226
SK-MEL-5 = test system: SK-MEL-5
COLO 205 = test system: COLO 205
SK-MEL-2 = test system: SK-MEL-2
HOP-92 = test system: HOP-92
SN12C = test system: SN12C
MDA-MB-435 = test system: MDA-MB-435
OVCAR-5 = test system: OVCAR-5
A498 = test system: A498
T47D = test system: T47D
OVCAR-3 = test system: OVCAR-3
HT-29 = test system: HT-29
IGROV-1 = test system: IGROV-1
SK-MEL-28 = test system: SK-MEL-28
MDA-N = test system: MDA-N
OVCAR-4 = test system: OVCAR-4
RPMI-8226 = test system: RPMI-8226
ACHN = test system: ACHN
LOX IMVI = test system: LOX IMVI
U-251 = test system: U-251
NCI-H23 = test system: NCI-H23
SF-268 = test system: SF-268
UACC-257 = test system: UACC-257
MDA-MB-231 = test system: MDA-MB-231
SNB-19 = test system: SNB-19
SW-620 = test system: SW-620
M14 = test system: M14
RXF 393 = test system: RXF 393
DU-145 = test system: DU-145
SR = test system: SR
MCF7 = test system: MCF7
UACC-62 = test system: UACC-62
Hs-578T = test system: Hs-578T
SF-295 = test system: SF-295
TK-10 = test system: TK-10
SNB-75 = test system: SNB-75
CCRF-CEM = test system: CCRF-CEM
A549 = test system: A549
HL-60 = test system: HL-60
NCI-H460 = test system: NCI-H460
MOLT-4 = test system: MOLT-4
HCT-116 = test system: HCT-116
786-0 = test system: 786-0
NCI-H522 = test system: NCI-H522
Malme-3M = test system: Malme-3M
CAKI-1 = test system: CAKI-1
KM12 = test system: KM12
SK-OV-3 = test system: SK-OV-3
OVCAR-8 = test system: OVCAR-8
SF-539 = test system: SF-539

Measured: GI50

Cc1cc2c(cc1-c1cc3c(cc1C)C(C(C)C)=C(O)C(=O)/C3=C\Nc1cccc3c(N)cccc13)/C(=C/Nc1cccc3c(N)cccc13)C(=O)C(O)=C2C(C)C
inactive: NCI/ADR-RES > 100 µM | K562 54.3 µM | EKVX > 100 µM | HCC 2998 > 100 µM | PC-3 79.8 µM | UO-31 30.8 µM | BT-549 > 100 µM | HOP-62 > 100 µM | NCI-H226 > 100 µM | SK-MEL-5 > 100 µM | COLO 205 > 100 µM | SK-MEL-2 > 100 µM | HOP-92 > 100 µM | SN12C > 100 µM | MDA-MB-435 > 100 µM | OVCAR-5 > 100 µM | A498 > 100 µM | T47D > 100 µM | OVCAR-3 > 100 µM | HT-29 > 100 µM | IGROV-1 > 100 µM | SK-MEL-28 > 100 µM | MDA-N > 100 µM | OVCAR-4 > 100 µM | RPMI-8226 > 100 µM | ACHN > 100 µM | LOX IMVI > 100 µM | U-251 49.1 µM | NCI-H23 > 100 µM | SF-268 > 100 µM | UACC-257 > 100 µM | MDA-MB-231 > 100 µM | SNB-19 > 100 µM | SW-620 > 100 µM | M14 48.5 µM | RXF 393 > 100 µM | DU-145 > 100 µM | SR 65.8 µM | MCF7 > 100 µM | UACC-62 > 100 µM | Hs-578T > 100 µM | SF-295 > 100 µM | TK-10 > 100 µM | SNB-75 > 100 µM | CCRF-CEM 39.2 µM | A549 59.4 µM | HL-60 33.8 µM | NCI-H460 > 100 µM | MOLT-4 37.4 µM | HCT-116 > 100 µM | 786-0 > 100 µM | NCI-H522 > 100 µM | Malme-3M > 100 µM | CAKI-1 > 100 µM | KM12 > 100 µM | SK-OV-3 > 100 µM | OVCAR-8 > 100 µM
> 100 µM: HCT-15

Cc1ccc2[nH]c3c(c2c1)C1CCC(C(C)(C)C)CC1C1C(=O)N(c2ccc4c(c2)OCO4)C(=O)C31 (configuration not stated)
inactive: NCI/ADR-RES 3.1 µM | K562 3.01 µM | EKVX 3.57 µM | HCC 2998 2.38 µM | PC-3 3.07 µM | UO-31 2.55 µM | BT-549 7.87 µM | HOP-62 1.91 µM | NCI-H226 2.84 µM | SK-MEL-5 8.15 µM | COLO 205 3.31 µM | SK-MEL-2 7.18 µM | HOP-92 2.24 µM | SN12C 2.24 µM | MDA-MB-435 7.21 µM | OVCAR-5 3.61 µM | A498 1.83 µM | T47D 2.06 µM | OVCAR-3 1.52 µM | HT-29 4.51 µM | IGROV-1 2.45 µM | SK-MEL-28 5.61 µM | MDA-N 5.41 µM | OVCAR-4 1.85 µM | RPMI-8226 4.3 µM | ACHN 1.87 µM | LOX IMVI 2.4 µM | U-251 2.1 µM | NCI-H23 6.55 µM | SF-268 2.03 µM | UACC-257 9.68 µM | MDA-MB-231 2.29 µM | SNB-19 2.64 µM | SW-620 2.63 µM | M14 4.7 µM | RXF 393 2.26 µM | DU-145 2.99 µM | SR 1.91 µM | MCF7 3.24 µM | UACC-62 10.8 µM | Hs-578T 1.55 µM | SF-295 3.11 µM | TK-10 2.05 µM | CCRF-CEM 1.82 µM | A549 2.31 µM | SF-539 1.35 µM | HL-60 2.72 µM | NCI-H460 1.78 µM | MOLT-4 1.81 µM | HCT-116 2.34 µM | 786-0 1.63 µM | NCI-H522 2.67 µM | Malme-3M 2.23 µM | CAKI-1 2.3 µM | KM12 5.25 µM | SK-OV-3 2.58 µM | OVCAR-8 1.97 µM
5.21 µM: HCT-15

C/C=C/c1cc2c(cc1O)CC[C@@H]1[C@@H]2CC[C@]2(C)[C@@H](O)CC[C@@H]12
0.069 µM: HCT-15
inactive: EKVX 5.07 µM | PC-3 2.37 µM | BT-549 1.6 µM | COLO 205 11.7 µM | SK-MEL-2 1.51 µM | OVCAR-5 10.8 µM | T47D 14.8 µM | HT-29 6.34 µM | IGROV-1 1.96 µM | SK-MEL-28 1.49 µM | OVCAR-4 13.6 µM | TK-10 14.3 µM | KM12 1.24 µM
active: NCI/ADR-RES 0.0246 µM | K562 0.016 µM | HCC 2998 0.705 µM | UO-31 0.372 µM | HOP-62 0.0791 µM | NCI-H226 0.226 µM | SK-MEL-5 0.0289 µM | SN12C 0.08 µM | MDA-MB-435 0.0102 µM | A498 0.146 µM | OVCAR-3 0.0193 µM | MDA-N 0.0215 µM | RPMI-8226 0.0264 µM | ACHN 0.0594 µM | LOX IMVI 0.0357 µM | U-251 0.0315 µM | NCI-H23 0.133 µM | SF-268 0.217 µM | UACC-257 0.132 µM | MDA-MB-231 0.317 µM | SNB-19 0.0695 µM | SW-620 0.04 µM | M14 0.041 µM | RXF 393 0.1 µM | DU-145 0.0849 µM | SR 0.0259 µM | MCF7 0.171 µM | UACC-62 0.0246 µM | Hs-578T 0.0653 µM | SF-295 0.966 µM | SNB-75 0.188 µM | CCRF-CEM 0.0289 µM | A549 0.0536 µM | SF-539 0.0237 µM | HL-60 0.0183 µM | NCI-H460 0.0275 µM | MOLT-4 0.0409 µM | HCT-116 0.022 µM | 786-0 0.053 µM | NCI-H522 < 0.0142 µM | Malme-3M 0.164 µM | CAKI-1 0.0144 µM | SK-OV-3 0.183 µM | OVCAR-8 0.182 µM

CC(C)Oc1cc2c(cc1O)CC[C@@H]1[C@@H]2CC[C@]2(C)[C@@H](O)CC[C@@H]12
active: MDA-MB-435 0.687 µM | MDA-N 0.424 µM | SR 0.575 µM
1.61 µM: HCT-15
inactive: NCI/ADR-RES 2.07 µM | K562 1.51 µM | EKVX 12.7 µM | HCC 2998 5.26 µM | PC-3 8.97 µM | UO-31 6.46 µM | BT-549 5.71 µM | HOP-62 4.15 µM | NCI-H226 3.23 µM | SK-MEL-5 3.01 µM | COLO 205 20 µM | HOP-92 11.2 µM | SN12C 5.66 µM | OVCAR-5 27.5 µM | A498 6.65 µM | T47D 4.68 µM | OVCAR-3 2.81 µM | HT-29 9.84 µM | IGROV-1 6.14 µM | SK-MEL-28 8.3 µM | OVCAR-4 9.64 µM | RPMI-8226 4.29 µM | ACHN 9.89 µM | LOX IMVI 4.58 µM | U-251 13.3 µM | NCI-H23 7.19 µM | SF-268 5.93 µM | UACC-257 3.99 µM | MDA-MB-231 8.36 µM | SNB-19 5.31 µM | SW-620 2.72 µM | M14 3.79 µM | RXF 393 3.82 µM | DU-145 7.28 µM | MCF7 2.25 µM | UACC-62 2 µM | Hs-578T 2.38 µM | SF-295 3 µM | TK-10 11 µM | SNB-75 4.69 µM | CCRF-CEM 2.9 µM | A549 5.52 µM | SF-539 2.42 µM | HL-60 1.71 µM | NCI-H460 3.28 µM | MOLT-4 4.74 µM | HCT-116 3.33 µM | 786-0 4.65 µM | NCI-H522 1.58 µM | Malme-3M 3.82 µM | CAKI-1 1.52 µM | KM12 4.2 µM | SK-OV-3 4.67 µM | OVCAR-8 8.75 µM
